Reference: the supplement of paper PMC13386468

How the values were obtained:
Test in all cases: IC50 for competition of protein binding to Kinobeads
Conditions in all cases: assay detail: Kinobeads competition in P. falciparum blood-stage lysate
UniProt O77358 = molecular target: UniProt O77358
UniProt C0H4V6 = molecular target: UniProt C0H4V6
UniProt Q8IB31 = molecular target: UniProt Q8IB31
UniProt Q8I6T3 = molecular target: UniProt Q8I6T3
UniProt Q8I5C6 = molecular target: UniProt Q8I5C6
UniProt Q8IBT2 = molecular target: UniProt Q8IBT2
UniProt Q8IIG7 = molecular target: UniProt Q8IIG7
Sequence of UniProt Q8IIG7 (Q8IIG7 whole entry): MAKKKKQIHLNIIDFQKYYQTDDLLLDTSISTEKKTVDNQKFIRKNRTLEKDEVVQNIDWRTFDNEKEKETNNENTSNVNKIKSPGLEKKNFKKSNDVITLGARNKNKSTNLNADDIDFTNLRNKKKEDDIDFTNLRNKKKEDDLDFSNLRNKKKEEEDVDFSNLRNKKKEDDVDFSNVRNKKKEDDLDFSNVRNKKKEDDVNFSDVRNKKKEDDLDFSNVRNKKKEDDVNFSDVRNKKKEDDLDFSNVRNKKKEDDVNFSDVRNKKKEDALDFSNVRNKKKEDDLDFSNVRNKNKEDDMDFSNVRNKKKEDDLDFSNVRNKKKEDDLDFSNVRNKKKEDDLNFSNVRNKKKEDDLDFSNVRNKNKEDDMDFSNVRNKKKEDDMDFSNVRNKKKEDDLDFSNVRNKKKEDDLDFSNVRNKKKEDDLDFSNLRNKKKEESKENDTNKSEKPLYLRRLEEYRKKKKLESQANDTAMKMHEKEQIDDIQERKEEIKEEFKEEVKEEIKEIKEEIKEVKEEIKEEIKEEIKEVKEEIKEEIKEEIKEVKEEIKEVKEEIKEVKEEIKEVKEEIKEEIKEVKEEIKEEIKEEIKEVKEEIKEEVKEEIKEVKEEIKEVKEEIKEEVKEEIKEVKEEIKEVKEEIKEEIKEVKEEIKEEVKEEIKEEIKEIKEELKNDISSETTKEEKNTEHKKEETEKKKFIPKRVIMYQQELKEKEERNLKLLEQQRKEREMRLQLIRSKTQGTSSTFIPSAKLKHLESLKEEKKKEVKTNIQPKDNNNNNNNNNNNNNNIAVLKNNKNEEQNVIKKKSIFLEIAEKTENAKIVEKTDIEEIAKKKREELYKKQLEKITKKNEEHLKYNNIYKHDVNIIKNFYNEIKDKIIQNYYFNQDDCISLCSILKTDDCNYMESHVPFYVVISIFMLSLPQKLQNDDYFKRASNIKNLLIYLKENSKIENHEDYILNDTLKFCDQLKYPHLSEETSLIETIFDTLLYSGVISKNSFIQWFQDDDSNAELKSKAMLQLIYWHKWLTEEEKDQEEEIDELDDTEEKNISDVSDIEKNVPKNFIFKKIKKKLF

UniProt Q8I0V3 = molecular target: UniProt Q8I0V3
UniProt O77330 = molecular target: UniProt O77330
UniProt Q8IAU1 = molecular target: UniProt Q8IAU1
UniProt Q8ID50 = molecular target: UniProt Q8ID50
UniProt Q8IDV2 = molecular target: UniProt Q8IDV2
UniProt Q8ILJ7 = molecular target: UniProt Q8ILJ7
UniProt Q8ILH5 = molecular target: UniProt Q8ILH5
UniProt Q8I1Q5 = molecular target: UniProt Q8I1Q5
UniProt Q8IDH5 = molecular target: UniProt Q8IDH5
UniProt Q8I367 = molecular target: UniProt Q8I367
UniProt Q8I202 = molecular target: UniProt Q8I202
UniProt O15770 = molecular target: UniProt O15770
Sequence of UniProt O15770 (O15770 whole entry): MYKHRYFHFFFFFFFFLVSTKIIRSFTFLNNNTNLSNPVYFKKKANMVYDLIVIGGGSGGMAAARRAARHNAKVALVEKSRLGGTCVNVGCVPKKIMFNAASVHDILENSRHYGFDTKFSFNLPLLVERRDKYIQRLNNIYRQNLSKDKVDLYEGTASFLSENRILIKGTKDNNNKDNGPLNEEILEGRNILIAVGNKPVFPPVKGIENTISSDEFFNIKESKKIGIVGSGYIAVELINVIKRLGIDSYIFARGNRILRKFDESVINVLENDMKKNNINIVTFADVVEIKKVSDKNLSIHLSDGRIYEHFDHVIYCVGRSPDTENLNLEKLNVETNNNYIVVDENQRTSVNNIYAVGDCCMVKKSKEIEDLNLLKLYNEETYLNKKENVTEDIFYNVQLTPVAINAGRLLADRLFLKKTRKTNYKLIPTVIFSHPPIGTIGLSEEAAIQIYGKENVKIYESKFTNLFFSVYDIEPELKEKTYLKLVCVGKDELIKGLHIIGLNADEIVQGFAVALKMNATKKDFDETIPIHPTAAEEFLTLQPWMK

UniProt Q8IAL6 = molecular target: UniProt Q8IAL6
UniProt Q8ID49 = molecular target: UniProt Q8ID49
UniProt Q8IBN1 = molecular target: UniProt Q8IBN1
UniProt O77345 = molecular target: UniProt O77345
UniProt C0H4X1 = molecular target: UniProt C0H4X1
UniProt Q8IK12 = molecular target: UniProt Q8IK12
UniProt C0H4Z7 = molecular target: UniProt C0H4Z7
UniProt C0H5C2 = molecular target: UniProt C0H5C2
UniProt Q8IIM4 = molecular target: UniProt Q8IIM4
UniProt O97248 = molecular target: UniProt O97248
UniProt C0H4K6 = molecular target: UniProt C0H4K6
UniProt Q8I1R5 = molecular target: UniProt Q8I1R5
UniProt Q8IAV1 = molecular target: UniProt Q8IAV1
UniProt Q8IL94 = molecular target: UniProt Q8IL94
UniProt Q7K6A9 = molecular target: UniProt Q7K6A9
UniProt Q8I5K4 = molecular target: UniProt Q8I5K4
UniProt C0H4S5 = molecular target: UniProt C0H4S5
UniProt Q8IJJ0 = molecular target: UniProt Q8IJJ0
UniProt Q8I1V2 = molecular target: UniProt Q8I1V2
UniProt Q8ILE8 = molecular target: UniProt Q8ILE8
UniProt Q8IDW4 = molecular target: UniProt Q8IDW4
UniProt Q8I512 = molecular target: UniProt Q8I512
UniProt O97266 = molecular target: UniProt O97266
UniProt Q8IB24 = molecular target: UniProt Q8IB24
UniProt Q8IKB0 = molecular target: UniProt Q8IKB0
UniProt Q8II42 = molecular target: UniProt Q8II42
UniProt Q8ILT0 = molecular target: UniProt Q8ILT0
UniProt C6KT56 = molecular target: UniProt C6KT56
UniProt Q8IK92 = molecular target: UniProt Q8IK92
UniProt Q8IHP1 = molecular target: UniProt Q8IHP1
UniProt Q8IE82 = molecular target: UniProt Q8IE82
UniProt Q8II61 = molecular target: UniProt Q8II61

Measured: IC50
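Further: native unpurified kinases from lysate captured on beads bearing immobilized kinase inhibitors, with bead-bound kinases quantified by mass spectrometry across compound doses.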

Sequence of UniProt C0H4V6 (C0H4V6 whole entry): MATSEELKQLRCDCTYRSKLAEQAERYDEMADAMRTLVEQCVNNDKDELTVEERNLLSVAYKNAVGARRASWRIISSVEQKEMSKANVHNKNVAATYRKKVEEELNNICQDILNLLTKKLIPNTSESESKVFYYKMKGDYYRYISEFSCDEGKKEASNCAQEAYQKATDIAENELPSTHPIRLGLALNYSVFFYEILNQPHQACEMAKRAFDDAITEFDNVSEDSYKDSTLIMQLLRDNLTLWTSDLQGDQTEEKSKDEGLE

O=c1[nH]c2ccc(Cl)cc2c(NC2CN3CCC2CC3)c1-c1nc2ccccc2[nH]1 (stereo unspecified) [CHIR-124]
> 20 µM: all assays above
